Tests used:
[1] = test system: GUS activity in faecal extracts; assay: pNPG processing assay in faecal extracts of DCF-treated mice; details: single dose DCF 60 mg/kg intraperitoneal, faeces 12 hours after, 1 mM pNPG, pH 7.4
[2] = biological target: T1, Faecalibacterium prausnitzii GUS (FpGUS) (Faecalibacterium duncaniae, UniProt C7H4D2); details: pNPG as substrate; optimal pH 6.0; 37 °C
T1 sequence (C7H4D2 1-608): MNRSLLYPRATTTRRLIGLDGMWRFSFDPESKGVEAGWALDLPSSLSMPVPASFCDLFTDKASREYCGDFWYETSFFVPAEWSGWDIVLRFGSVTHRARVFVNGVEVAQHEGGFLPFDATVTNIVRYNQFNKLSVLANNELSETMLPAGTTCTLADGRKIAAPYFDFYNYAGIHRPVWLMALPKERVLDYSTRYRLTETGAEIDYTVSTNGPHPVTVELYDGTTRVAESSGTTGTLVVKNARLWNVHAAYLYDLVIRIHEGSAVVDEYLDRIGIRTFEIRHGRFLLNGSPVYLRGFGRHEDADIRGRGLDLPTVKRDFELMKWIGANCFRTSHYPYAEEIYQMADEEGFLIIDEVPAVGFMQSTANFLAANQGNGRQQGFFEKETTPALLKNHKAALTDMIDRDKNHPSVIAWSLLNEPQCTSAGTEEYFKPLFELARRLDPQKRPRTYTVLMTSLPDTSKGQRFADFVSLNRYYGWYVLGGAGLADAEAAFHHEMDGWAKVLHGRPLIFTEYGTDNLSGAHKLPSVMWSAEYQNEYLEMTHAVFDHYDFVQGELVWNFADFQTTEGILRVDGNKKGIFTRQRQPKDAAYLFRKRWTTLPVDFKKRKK

BdGUS (−)CBM Loop mutant = assay: pNPG processing by BdGUS (−)CBM Loop mutant; details: deletion of CBM loop of BdGUS; Fig. S13a
[3] = biological target: T2, Lactobacillus rhamnosus GUS (LrGUS) (Lacticaseibacillus rhamnosus, UniProt A0A2A5L2J1); details: pNPG as substrate; optimal pH 4.5; 37 °C
T2 sequence (A0A2A5L2J1 1-603): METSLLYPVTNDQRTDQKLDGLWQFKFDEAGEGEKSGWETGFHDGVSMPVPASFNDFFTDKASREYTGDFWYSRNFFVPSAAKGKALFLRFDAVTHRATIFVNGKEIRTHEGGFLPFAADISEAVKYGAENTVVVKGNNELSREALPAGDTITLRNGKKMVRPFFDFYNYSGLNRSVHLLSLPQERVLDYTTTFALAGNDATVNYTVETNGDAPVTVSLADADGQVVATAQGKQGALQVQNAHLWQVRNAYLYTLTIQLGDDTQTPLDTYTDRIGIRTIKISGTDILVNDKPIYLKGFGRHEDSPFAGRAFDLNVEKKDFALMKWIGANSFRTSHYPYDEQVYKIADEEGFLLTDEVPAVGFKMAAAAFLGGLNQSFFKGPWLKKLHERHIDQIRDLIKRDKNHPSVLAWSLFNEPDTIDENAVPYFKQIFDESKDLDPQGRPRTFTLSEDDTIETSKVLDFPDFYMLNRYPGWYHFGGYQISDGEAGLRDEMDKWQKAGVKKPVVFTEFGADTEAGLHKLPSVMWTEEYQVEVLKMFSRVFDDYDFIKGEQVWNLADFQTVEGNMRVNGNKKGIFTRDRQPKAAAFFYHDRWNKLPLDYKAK

E. coli GUS (EcGUS) = E. coli GUS (EcGUS) (Escherichia coli, UniProt P05804); details: pNPG as substrate; optimal pH 7.4; cited from earlier work
Chain of E. coli GUS (EcGUS) (P05804 whole entry): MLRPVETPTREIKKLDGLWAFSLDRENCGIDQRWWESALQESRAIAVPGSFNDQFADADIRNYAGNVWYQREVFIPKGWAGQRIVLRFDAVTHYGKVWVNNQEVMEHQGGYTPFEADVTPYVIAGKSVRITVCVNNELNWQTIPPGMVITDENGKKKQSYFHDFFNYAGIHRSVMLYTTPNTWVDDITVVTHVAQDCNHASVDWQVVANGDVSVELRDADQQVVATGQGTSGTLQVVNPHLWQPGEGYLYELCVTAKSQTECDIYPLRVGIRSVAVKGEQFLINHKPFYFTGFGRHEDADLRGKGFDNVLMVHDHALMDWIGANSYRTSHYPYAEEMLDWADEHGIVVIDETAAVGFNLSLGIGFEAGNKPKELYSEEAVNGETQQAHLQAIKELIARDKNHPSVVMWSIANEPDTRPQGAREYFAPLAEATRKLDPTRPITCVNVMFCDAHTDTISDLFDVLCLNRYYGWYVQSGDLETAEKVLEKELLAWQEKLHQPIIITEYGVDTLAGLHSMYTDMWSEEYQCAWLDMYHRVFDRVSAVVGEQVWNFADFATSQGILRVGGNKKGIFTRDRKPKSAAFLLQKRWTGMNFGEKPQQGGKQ

[4] = biological target: T3, Ruminococcus gnavus GUS (RgGUS) (Mediterraneibacter gnavus, UniProt A0A2N5PVZ8); format: biochemical; details: pNPG as substrate; optimal pH 6.5; apparent value estimated at low pNPG concentrations
T3 sequence (A0A2N5PVZ8 1-603): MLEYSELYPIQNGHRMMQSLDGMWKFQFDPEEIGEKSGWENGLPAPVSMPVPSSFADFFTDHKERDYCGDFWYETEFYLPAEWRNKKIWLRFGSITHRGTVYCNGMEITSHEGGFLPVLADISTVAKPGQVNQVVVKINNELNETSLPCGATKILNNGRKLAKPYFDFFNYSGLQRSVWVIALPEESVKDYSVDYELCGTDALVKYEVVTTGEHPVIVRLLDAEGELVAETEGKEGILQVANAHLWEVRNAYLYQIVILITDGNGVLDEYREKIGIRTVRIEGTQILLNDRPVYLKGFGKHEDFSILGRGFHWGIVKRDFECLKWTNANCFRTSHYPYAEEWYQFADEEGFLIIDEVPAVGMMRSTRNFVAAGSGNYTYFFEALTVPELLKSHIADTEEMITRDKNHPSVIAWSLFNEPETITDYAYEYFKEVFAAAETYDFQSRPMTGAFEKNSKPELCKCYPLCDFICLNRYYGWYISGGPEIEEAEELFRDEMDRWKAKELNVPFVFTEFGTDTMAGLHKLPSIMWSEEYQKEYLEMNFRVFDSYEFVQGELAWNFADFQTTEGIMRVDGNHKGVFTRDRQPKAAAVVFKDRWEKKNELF

EeGUS (−)EeLoop mutant = assay: pNPG processing by EeGUS (−)EeLoop mutant; details: deletion of residues M149 to A159 (Ee Extra Loop); Fig. S13c
[5] = biological target: Clostridium perfringens GUS (CpGUS) (Clostridium perfringens, UniProt Q8VNV4); details: pH 6.5

| SMILES | GUS activity (pNPG processing) in faecal extracts compared to pre-treatment levels [1] | kcat [2] [s⁻¹] | activity of mutant with pNPG (in words) (BdGUS (−)CBM Loop mutant) | kcat [3] [s⁻¹] | Km (E. coli GUS (EcGUS)) [µM] | kcat (s^−1) (E. coli GUS (EcGUS)) | kcat [4] [s⁻¹] | pNPG cleavage rate of mutant relative to WT (EeGUS (−)EeLoop mutant) [%] | kcat [5] [s⁻¹] |
| --- | --- | --- | --- | --- | --- | --- | --- | --- | --- |
| O=C(O)Cc1ccccc1Nc1c(Cl)cccc1Cl [DCF, diclofenac] | increases GUS activity | – | – | – | – | – | – | – | – |
| O=C(O)[C@H]1O[C@@H](Oc2ccc([N+](=O)[O-])cc2)[C@H](O)[C@@H](O)[C@@H]1O [pNPG, p-nitrophenol-β-D-glucuronide] | – | 58 | inactive | 10.0 | 130 ± 10 | 120 ± 10^a s^−1 | 2.8 | 9 | 57 |
